Measurements: patent US9795131B2, “Sophorolactone compositions and uses thereof” (ECOVER CO-ORDINATION CENTER N.V., priority 2011, dated 2017)
Where “and” joins values, the source holds several entries; their conditions need not be identical. Equal values may be shown once.

Columns and labels:
[1] = Capacity of solvents to dissolve sophorolactone; format: physicochemical; settings: percent sophorolactone dissolved by the solvent at room temperature
[2] = OK / NOK; cited from earlier work
[3] = Contact angle of isoamyl lactate / partial sophorolipid hydrolysate mixtures; format: physicochemical; settings: room temperature, sessile drop; FIG. 4
Protocol: The contact angle of combinations of isoamyl lactate (Galactic) with partial sophorolipid hydrolysate (0.7 mol equivalent) on white PVC-strips (Leneta) was measured at room temperature with a Krüss DSA100 tensiometer using the sessile drop method. Each component of the mixtures is at maximum 1% active matter. Results are evaluated with the software Statistica.

Solubility in water = format: physicochemical
[4] = Contact angle of deionized water on treated substrate, without or with rinses; format: physicochemical; settings: 1% active; for Contact angle Rinse 2: after rinse 2; for Contact angle Rinse 2 / Contact angle Rinse 3 / Contact angle Rinse 1 / Contact Angle: in ° (unit assumed); for Contact angle Rinse 3: after rinse 3; for Contact angle Rinse 1: after rinse 1; for Contact Angle: before rinsing, NM = not measurable due to an extremely low contact angle
Protocol: A test composition was made by dissolving 10% sophorolactone in ethanol. […] Different substrates are wetted with said 1% lactone dispersion and dried in a climate chamber at 40° C. Substrates used were glass, polyvinylchloride (PVC) and leek leaves.
(§1) Several contact angle measurements were performed on each substrate.
(§2) The results obtained were for solutions wherein lactone was replaced by sodium lauryl sulphate (SPS), APG600 (a C10-C16 alkylpolyglucoside), wild type or crude sophorolipid (as obtained after fermentation, denominated as WT in Table 2), FAEO/PO nonionic (CAS 68439-51-0, C12-14 fatty alcohol, 5 mole EO, 4 mol EO), modified FAEO/PO (C8/10 fatty alcohol+1 PO+22 EO (2-hydroxydecyl)-ether) and siloxane polyether copolymer (Silwet Hydrostable 68).
This experiment was repeated with different substrates and different 1% active surfactant solutions as elaborated in Table 2.

[5] = as above; format: physicochemical; settings: for Contact angle Rinse 1 / Contact angle Rinse 2 / Contact angle Rinse 3 / Contact angle Rinse 4 / Contact angle Rinse 5 / Contact Angle: PVC, in ° (unit assumed); for Contact angle Rinse 1: after rinse 1; for Contact angle Rinse 2: after rinse 2; for Contact angle Rinse 3: after rinse 3; for Contact angle Rinse 4: after rinse 4; for Contact angle Rinse 5: after rinse 5; for Contact Angle: before rinsing, NM = not measurable due to an extremely low contact angle
Protocol: A test composition was made by dissolving 10% sophorolactone in ethanol. […] […] Substrates used were glass, polyvinylchloride (PVC) and leek leaves.
as §1
as §2, with “68). […]” for “68).”

Film forming properties = format: physicochemical
Excerpt: This experiment was repeated with pieces of leek with the same outcome. […] The latter destructive detection method necessitated several PVC strips to be used, each strip lasting an extra rinse cycle before detection.

dust mite proteins = test: Denaturation of dust mite proteins; format: biochemical
[6] = Allergic reaction to house dust mite excrements
Antifogging test = format: physicochemical; settings: mirror treated with 10% solution in water of 10% sophorolactone in ethanol, dried
Protocol: The other half of the mirror was treated with a 10% solution of ethanol.

[7] = Sensitivity to hard water; format: physicochemical
Propionibacterium acnes = test: Effectiveness against acne bacterium; format: cell-based

OCCCO [1.3 propanediol]
% lactone dissolved [1]: 2.75%

CC1(C)OCC(CO)O1 (stereo not drawn) [2-3-o-isopropyliden glycerin, (2,2-dimethyl-[1,3]dioxolan-4-yl)-methanol]
GRAS status [2]: NOK

OCc1ccccc1 [Benzylalcohol]
% lactone dissolved [1]: 67.35%

CCCCOC(=O)C(C)O (stereo not drawn) [Butyl lactate]
% lactone dissolved [1]: 20%

CCCCCCC(O)CO (stereo not drawn) [Caprylyl Glycol]
% lactone dissolved [1]: 8.65%

C=C(C)[C@H]1CC=C(C)CC1 [D-limonene]
% lactone dissolved [1]: 8.5%

COC(C)COC(C)CO (stereo not drawn) [DPM, dipropyleneglycol methyl ether]
% lactone dissolved [1]: 28.93% | GRAS status [2]: NOK

CO[C@H]1CO[C@H]2[C@@H]1OC[C@H]2OC [Dimethyl isosorbide]
% lactone dissolved [1]: 31.89% | GRAS status [2]: NOK

CCO [Ethanol]
% lactone dissolved [1]: 7.5%

CCOC(C)=O [Ethylacetate]
% lactone dissolved [1]: 3.96%

CC(=O)O [Glacial acetic]
% lactone dissolved [1]: 23.65%

O=C1OCC(CO)O1 (stereo not drawn) [Glycerincarbonate]
% lactone dissolved [1]: <1%

OCC(O)CO [Glycerol]
% lactone dissolved [1]: <1%

CCCCCCO [Hexanol]
% lactone dissolved [1]: 2.65%

OCCCc1ccccc1 [Hydrocinnamylalcohol]
% lactone dissolved [1]: 32.5%

CC(C)CCOC(=O)C(C)O (stereo not drawn) [Isoamyl lactate]
% lactone dissolved [1]: 21.2% | GRAS status [2]: NOK | concentration at maximal PVC wetting [3]: ~1.2% | solubility in water (Solubility in water): ≤ 1%

CC(C)O [Isopropanol]
% lactone dissolved [1]: 2.2%

CCCCOCC(C)O (stereo not drawn) [PNB Henkel]
% lactone dissolved [1]: 6.73%

CCCOCC(C)O (stereo not drawn) [PNP, 1-propoxy 2-propanol]
% lactone dissolved [1]: 15.57%

OCCc1ccccc1 [Phenetyl alcohol]
% lactone dissolved [1]: 22%

OCCOc1ccccc1 [Phenoxyethanol]
GRAS status [2]: NOK

CC(O)CO (stereo not drawn) [Propylene glycol]
% lactone dissolved [1]: 9.05%

CCCCCCCCCCCCOS(=O)(=O)[O-].[Na+] [SLS, sodium lauryl sulphate, reference compound]
Contact angle Rinse 2 ([4]; glass, sulphate): 33.2 and 64.2 and 33.8 | Contact angle Rinse 3 ([4]; glass, sulphate): 37.3 and 40.3 and 51.8 | Contact angle Rinse 4 ([4]; glass, after rinse 4, sulphate): 50.8 and 36.2 | Contact angle Rinse 5 ([4]; glass, after rinse 5, sulphate): 34 and 38 and 30 | Contact angle Rinse 1 ([5]; 1% active, sulphate): 72 and 100 and 96 | Contact angle Rinse 2 ([5]; 1% active, sulphate): 102 and 94 and 90 | Contact angle Rinse 3 ([5]; 1% active, sulphate): 64 and 65 | Contact angle Rinse 4 ([5]; 1% active, sulphate): 75 and 84 and 102 | Contact angle Rinse 5 ([5]; 1% active, sulphate): 100 and 99 and 101 | Contact Angle ([5]; 1% active): 1

Cc1ccc(C(C)C)c(O)c1 [Thymol, thymol, reference compound]
retention of active on PVC substrate (Film forming properties; 1% dispersion of 10% lactone, 10% thymol, 80% ethanol solution, smell and sulfuric acid colour): remained fixed on the PVC substrate for several rinses

Glycerin formal
% lactone dissolved [1]: 35%

sophorolactone
denaturation of dust mite proteins (dust mite proteins): denatures dust mite proteins | Contact angle Rinse 1 ([4]; glass): 15.3 and 10 and 12 | Contact angle Rinse 2 ([4]; glass): 24.4 and 30 and 25 | Contact angle Rinse 3 ([4]; glass): 23.5 and 27.8 and 25 | Contact Angle ([4]; glass): 14.2 and 14.1 and 11.3 and 10 | Contact angle Rinse 1 ([4]; leek): 25 and 26 and 28 | Contact Angle ([4]; leek): 28 and 27 and 25 | allergic reaction to excrements of house dust mites [6]: effectively reduces the allergic reaction | condensation or fogging above boiling water (Antifogging test): not visually covered with condensation water and retained its mirror properties | sensitivity to hard water [7]: insensitive to hard water | contact angles and rinse resistance ([5]; 1% lactone dispersion made using hard water): equally low contact angles and excellent rinse resistance | Contact angle Rinse 1 ([5]; 0.1% Lactone): 66 and 67 and 79 | Contact angle Rinse 2 ([5]; 0.1% Lactone): 90 and 80 | Contact angle Rinse 1 ([5]; 1% active in hard water (200 ppm CaCO3)): 19 and 20 and 21 | Contact angle Rinse 2 ([5]; 1% active in hard water): 14 and 15 | Contact angle Rinse 3 ([5]; 1% active in hard water): 12 and 17 and 14 | Contact angle Rinse 4 ([5]; 1% active in hard water): 11 and 12 | Contact angle Rinse 5 ([5]; 1% active in hard water): 12 and 11 and 10 | Contact angle Rinse 2 ([5]; 1% active): 0 | Contact angle Rinse 2 ([5]; 1% active, listed as lactone): 8.4 and 16 | Contact Angle ([5]; 1% active): 7 and 10 | wetting by water after rinses ([5]; hydrophobic surface such as PVC and leek): excellent wetting by water even after 5 rinses | phytotoxicity (Phytotoxicity): not phytotoxic | stability of dispersion (Film forming properties; 1% sophorolactone dispersion in water made from 10% solution in ethanol): remained stable overnight at room temperature without visual separation | removability of dried layer by water (Film forming properties; 10% sophorolactone in benzyl alcohol applied to a PVC sheet, air dried): virtually impossible to remove with running tap water or with repeated rinsing with water | repeated rinse and dry cycles withstood by layer (Film forming properties; PVC sheet, 1% sophorolactone dispersion, air dried): at least 5 cycles | effectiveness against Propionibacterium acnes (Propionibacterium acnes): effective
